Reference: patent US20210275576A1, “MOLECULAR HYDROGEN-CONTAINING COMPOSITION FOR PREVENTION AND/OR IMPROVEMENT OF GENETIC DISORDER” (MiZ Company Limited, priority 2020, published 2021)

Test system: patient diagnosed as having Down syndrome
Conditions: inhalation 1-3 hours per day for one month, hydrogen concentration 4% to 6%
Excerpt: A patient diagnosed as having Down syndrome developed mild cognitive impairment and could not go out because of a depressive symptom. Additionally, their skin had wrinkles due to premature aging characteristic to Down syndrome.

## [HH] [hydrogen, molecular hydrogen]
  ability to go out: could go out
  motivation to learn: got motivated to learn
  skin resilience (premature aging): became resilient
  skin wrinkles (premature aging): became less noticeable
200 ml/min (Jobs-α generator)
  depressive symptom: improved
